The IC50 is the concentration at which inhibition is half-maximal.

Here are results for 3 compounds from publication PMC7181960 (ChemMedChem, 2019).

Assay [1] relates to PC3 cells. The assay can be described thus: Cell death assay. Particulars: PC3, IC50 concentration, 72 h, flow cytometry. It is filed as cell-based, human. Background: In flow cytometry, cells or beads pass a laser one at a time.
For assay [2], the system named is Vascular Endothelial Growth Factor (VEGF). The assay can be described thus: Immunofluorescent analysis of VEGF level in PC3 cells. Type of assay: cell-based, human. Particulars: PC3, IC20 concentration, 24 h incubation.
Assay [3] deals with Caki-1. Particulars: read-out: IC50 Caki-1; 72 h incubation; values previously reported, ref [10]; cited from earlier work.
Assay [4] deals with PC3. Kind of assay: PrestoBlue Cell Viability assay, 72 h. It is filed as cell-based, human. The conditions noted are these: read-out: IC50 PC3, 72 h incubation.
Assay [5] concerns IMR-90. Particulars: read-out: IC50 IMR-90; 72 h incubation; values previously reported, ref [10]; cited from earlier work.
For assay [6], the system named is PC3 cells. The conditions noted are these: previously described, ref [16]; cited from earlier work.
In assay [7] the test system is Caki-1. The assay can be described thus: PrestoBlue Cell Viability assay, 72 h. The conditions noted are these: read-out: IC50 Caki-1, 72 h incubation.

Read-outs that look alike come from different tables or passages of the source.

On to `CC(=O)OC[C@H]1O[C@@H]([S-])[C@H](OC(C)=O)[C@@H](OC(C)=O)[C@@H]1OC(C)=O.CCP(CC)CC.[Au+]` [Auranofin], for which, in assay [1], the “apoptosis, % of the cell population” value came out at 73%. Further, the “reduction of VEGF” value in assay [2] was found to be 50%. Further, the IC50 in assay [3] is 2.8 ± 0.6 µM; in assay [4], 3.6 ± 0.005 µM; in assay [5] it was 3.7 ± 0.4 µM.

As for `N.N.[Cl][Pt][Cl]` [Cisplatin], the IC50 in assay [3] is 23.9 ± 2.4 µM; in assay [4], 6.7 ± 2.8 µM; in assay [5], 3.9 ± 0.5 µM.

As for `COc1ccc(C[C]2([Ti+2][C]3(Cc4ccc(OC)cc4)C=CC=C3)C=CC=C2)cc1.[Cl-].[Cl-]` [Titanocene-Y], in assay [6], the reduction of migration is listed as 19%. Further, the results for the IC50 in assay [7] and in assay [4] were 29.4 ± 4.2 µM and 58.1 ± 11.2 µM, respectively.
